US20220372162A1, “PCT/US2020/066088” (TeneoFour, Inc., priority 2019, published 2022)
“Also recorded” adds a separate entry of the source.

Assays:
Daudi cells [1] = experiment: NAD+ assay in Daudi cells; assay type: cell-based; details: presence of NMN compared to absence of NMN, FIG. 19
Protocol: (§1) Studies were performed to assess whether blocking the ecto-NMNase activity of CD38 with the subject binding compounds causes an increase in the NMN-mediated increase in NAD+ within the CD38 expressing B cell lines Ramos and Daudi. The assay is based on the enzymatic cycling reaction in which NAD+ is reduced to NADH. NAD+ reacts with a colorimetric probe that produces a colored product. The intensity of the color is proportional to the NAD+ and NADH within a sample. Oxidized form is selectively destroyed by heating in basic solution, while reduced form is not stable in acidic solution.
(§2) Daudi or Ramos cells (2×10^5) were treated with antibody at a 5 nM concentration for 14 h. NAD+ was measured using an NAD+/NADH cycling assay kit (Cell Biolabs #MET-5014). Briefly, cell lysates were prepared in extraction buffer by homogenization, centrifugation at 4° C. at 14,000 rpm for 5 minutes, and deproteination through a 10 kDa spin filter. […] After 3 h, color development was read at 450 nm.
(§3) Daudi or Ramos cells (2×10^5) were treated with antibody at a 5 nM concentration in the presence or absence of 400 nM NMN for 14 h. NAD+ was measured using the NAD+/NADH cycling assay kit (Cell Biolabs #MET-5014). […] After 3 h, color development was read at 450 nm.

Daudi cells [2] = experiment: Direct apoptosis / direct cytotoxicity of Daudi cells; assay type: cell-based
Protocol: (§4) Induction of direct apoptosis was assessed by Annexin-V and 7-AAD staining using flow cytometry. Annexin-V is commonly used to detect apoptotic cells by its ability to bind to phosphatidylserine, a marker of apoptosis when it is present on the outer leaflet of the plasma membrane. 7-AAD binds to double stranded DNA that is taken up by dying or dead cells with compromised membranes. The CD38 positive cell lines used in this study were Daudi and Ramos cells.
(§5) A quad gate was used to distinguish between early apoptotic (Annexin-V+, 7-AAD−), late apoptotic (Annexin-V+, 7-AAD+), and viable cells (Annexin-V−, 7-AAD−). Concentration of binding compound was plotted against percent viability in Graphpad Prism 8. The resulting plot was fitted to a non-linear regression to determine EC50.

Ramos cells [3] = experiment: NAD+ assay in Ramos cells; assay type: cell-based; details: presence of NMN compared to absence of NMN, FIG. 19
Protocol: as §1, §2, §3

[4] = system: sirtuin activity in CD38 positive Ramos cells; experiment: Sirtuin activity assay (SIRT-GLO) in CD38 positive Ramos cells; assay type: cell-based; details: 24 h
Source text: To quantify sirtuin activity, Promega's one-step SIRT-GLO™ assay was used. The reagent formulation contains an acetylated lysine attached to aminoluciferin, along with a peptide sequence derived from p53. Upon deacetylation of the lysine by a sirtuin, the deacetylated peptide becomes a substrate for the developer reagent present in the reaction mixture. This yields free aminoluciferin that reacts with luciferase to give a luminescent signal that is stable and quantifiable.
CD38 positive Ramos cells were treated with a bispecific, bivalent three chain binding compound as depicted in FIG. 11, Panel D, or isotype control, in a 96 well plate (2×10^5 cells/well). After 24 h, the plate was centrifuged at 500 g for 5 minutes, and the cells were washed with 1×PBS followed by centrifugation. The cell pellet was resuspended in 50 μL of M-PER Mammalian Protein extraction reagent on ice. The cells were transferred to 1.5 mL tubes and homogenized for 30 seconds. The lysate was centrifuged at 14,000 rpm for 5 minutes at 4° C. The supernatant was incubated with 1:30 of anti-SIRT1 antibody (Abcam #32441) for 4 h on a rotator at 4° C. Protein A slurry (25 μL per 50 μL of lysate) was added and further incubated for 2 h at room temperature Immunoprecipitation (IP) buffer (Pierce #28379) was added (500 μL per tube) followed by centrifugation at 2500 g for 2 minutes. The wash step with IP buffer was repeated and 50 μL of IgG elution buffer (Pierce #21004) was added. After 5 minutes of incubation at room temperature, the eluate was centrifuged at 2500 g for 2 minutes. The supernatant was immediately neutralized with 1 M Tris (pH 9), 10 μL per 100 μL eluate. The eluate was used in the SIRT GLO™ assay (Promega #G6450) at a 1:1 ratio with the SIRT GLO™ reagent, per the manufacturer's instructions.
CD38 positive Ramos cells were treated with a bispecific, bivalent three chain binding compound (depicted in FIG. 11, Panel D) in combination with nicotinamide mononucleotide (NMN) at a concentration of 400 nM, or isotype control, in a 96 well plate (2×10^5 cells/well). After 24 h, the plate was centrifuged at 500 g for 5 minutes, and the cells were washed with 1×PBS followed by centrifugation. The cell pellet was resuspended in 50 μL of M-PER Mammalian Protein extraction reagent on ice. The cells were transferred to 1.5 mL tubes and homogenized for 30 seconds. The lysate was centrifuged at 14,000 rpm for 5 minutes at 4° C. The supernatant was incubated with 1:30 of anti-SIRT1 antibody (Abcam #32441) for 4 h on a rotator at 4° C. Protein A slurry (25 μL per 50 μL of lysate) was added and further incubated for 2 h at room temperature Immunoprecipitation (IP) buffer (Pierce #28379) was added (500 μL per tube) followed by centrifugation at 2500 g for 2 minutes. […]

CD4 T cells = experiment: T-cell proliferation and IFNγ production in mixed lymphocyte reaction (MLR); assay type: cell-based
Protocol: Various binding compounds in accordance with embodiments of the invention were assessed for their ability to inhibit CD38 hydrolase activity without activating a mixed lymphocyte reaction (MLR). MLR occurs when MHC mismatched immune cells interact, triggering an immune response by T cell hyperproliferation and exacerbated cytokine release. […] The binding compounds were formulated at a concentration of 0.97 mg/mL in 20 mM Citrate, 100 mM NaCl, pH 6.2. Test substance was stored frozen at −80° C. until the day of use.
Analyses were performed to assess CD4 T cell proliferation and IFNγ production. The results are depicted in FIG. 20. […] The percentage of CD4 T cell proliferation is also shown in Panel C for a variety of other binding compounds.

Ramos cells [5] = experiment: Direct apoptosis of Ramos cells; assay type: cell-based; details: Annexin-V and 7-AAD staining, flow cytometry, FIG. 24
Protocol: as §4, §5

[6] = system: CD38 negative cell lines (293-Freestyle, HL-60, K562, CHO); experiment: Off target cell binding by flow cytometry (Example 10); details: K562 and HL-60 cells, FIG. 23
Protocol: On target and off target cell binding of a bispecific, bivalent three chain binding compound as depicted in FIG. 11, Panel D, was assessed. The binding compound was formulated at a concentration of 0.97 mg/mL in 20 mM Citrate, 100 mM NaCl, pH 6.2. Test substance was stored frozen at −80° C. until the day of use. Binding to CD38 positive and CD38 negative cell lines was assessed using flow cytometry. The CD38 positive cell lines used were Daudi, Ramos, and a CHO cell line transfected to stably express CD38. The CD38 negative cell lines used were 293-Freestyle, HL-60, K562, and CHO.
The average MFI of unstained wells was set as the background signal. To calculate fold over background of each experimental sample, the experimental sample MFI was divided by the average background MFI.

[7] = system: Xeno-GvHD in NOD scid gamma (NSG) mice; experiment: Xeno-GvHD model, human PBMCs in NSG mice; assay type: in vivo
Protocol: Xeno-GvHD was induced using 1.5 grays of radiation to facilitate colonization of human PBMCs in NOD scid gamma (NSG) mice. […] Survival was monitored until day 50. GvHD clinical score was determined mainly based on weight loss, posture, activity and fur texture. […] In contrast, the animals treated with PBMCs+PBS or PBMCs+mCD38 lost body weight quickly and were sacrificed before day 25 because of more than 20% weight loss. The survival, body weight, and clinical score data are shown in FIGS. 30, 31 and 32, respectively.

[8] = molecular target: T1, human CD38 expressed on CHO cells (Homo sapiens, UniProt P28907); experiment: Cell-based CD38 hydrolase activity, UniAb mixtures, bivalent and tetravalent formats (FIGS. 7, 8, 12, 16); details: tetravalent UniAbs with human IgG4 Fc region, FIG. 16; read-out: IC50, inhibition of hydrolase activity of human CD38 expressed on CHO cells
T1 construct: expressed in transfected cells; host or cells: CHO cells stably expressing human CD38
Protocol: After incubation, ε-NAD^+ (BioLog Cat. No. N010) was added to a final concentration of 150 μM. Production of a fluorescent product was measured at 1 hour (ex 300 nm/em 410 nm) using a Spectramax i3x plate reader (Molecular Devices). Hydrolase enzyme inhibition was assessed by comparing signal from UniAb™-treated wells to the percent of total enzymatic activity observed when CD38 protein was treated with an isotype control antibody (max).

Isatuximab: antibody against CD38 in clinical trials for Multiple Myeloma; VH SEQ ID NO: 30, VL SEQ ID NO: 31 [reference compound]
intracellular NAD+ levels (in words) (Daudi cells [1]): not Daudi
direct cytotoxicity of Daudi cells (in words) (Daudi cells [2]; FIG. 10): potently kill Daudi cells
direct apoptosis of Daudi cells (in words) (Daudi cells [2]; in 24 hours, stated with the NAD+ study): causes direct apoptosis
intracellular NAD+ levels (in words) (Ramos cells [3]): subtle difference in NAD+ increase

NC(=O)c1ccc[n+]([C@@H]2O[C@H](COP(=O)([O-])O)[C@@H](O)[C@H]2O)c1 [NMN, nicotinamide mononucleotide, reference compound]
sirtuin activity, luminescence (in words) ([4]; NMN 400 nM, FIG. 28): did not result in an increase in sirtuin activity

Daratumumab: antibody specific for human CD38, approved in 2015 for Multiple Myeloma
percentage of CD4 T cell proliferation in MLR (in words) (CD4 T cells; FIG. 20, Panel A): did result in an increase
IFNγ production in MLR (in words) (CD4 T cells; compared to IgG4 istp control, FIG. 20, Panel B): caused an increase

TNB-738: bispecific, bivalent three chain anti-human CD38 molecule, FIG. 11 Panel D, comprising F11A and F12A VH sequences
direct apoptosis of Ramos cells (in words) (Ramos cells [5]): did not cause direct apoptosis
intracellular NAD+ levels (in words) (Daudi cells [1]): remarkably increased the NAD+ levels
off target cell binding (in words) [6]: does not bind
sirtuin activity, luminescence (in words) ([4]; NMN 5 nM, 50 nM or 500 nM, FIG. 29): further increased in a dose-dependent manner by the presence of increasing concentrations of NMN
sirtuin activity, luminescence (in words) ([4]; NMN 400 nM, FIG. 28): further increased by the presence of NMN
sirtuin activity, luminescence (in words) ([4]; no NMN, FIG. 26): dose-dependent increase in sirtuin activity
prevention of GvHD (in words) ([7]; clinical score based on weight loss, posture, activity and fur texture): prevention of GvHD; also recorded: able to successfully prevent GvHD
survival ([7]; day 50 after PBMC injection, treatments twice weekly until day 18): 100%
direct apoptosis of Daudi cells (in words) (Daudi cells [2]; Annexin-V and 7-AAD staining, flow cytometry, FIG. 24): did not cause direct apoptosis
intracellular NAD+ levels (in words) (Ramos cells [3]): remarkably increased the NAD+ levels

B1: CD38F12A_2GS_CD38F11A: tetravalent bispecific UniAb, FIG. 11 Panel B format, distal VH CD38F12A, GS linker, proximal VH CD38F11A, human IgG4 Fc region (antibody)
heavy: GVQLVESGGGLVQPGGSLRLSCTASGFTFSSSWMSWVRQAPGKGLEWVANIKQDGSEKDYVDSAKGRFTISRDNAKNSLYLQMNNLRAEDTAVYYCARDRRGPFFHIWGQGTLVTVSSGGGGSQVQLVESGGGVVQPGRSLRLSCAASGFTFSSYGMHWVRQAPGKEREWVAVISDDGSNKYYADSVKGRFTISRDNSKNTLYLQMNSLRVEDTAVYYCAKDRGTMRVVVYDTLDIWGQGTLVTVSS
modifications: left off: a dimerising Fc or GST
IC50 [8]: 4.5 nM
